The target of one experiment is T1, Bcl-w (Homo sapiens, UniProt Q92843).
T1 sequence (Q92843 1-193): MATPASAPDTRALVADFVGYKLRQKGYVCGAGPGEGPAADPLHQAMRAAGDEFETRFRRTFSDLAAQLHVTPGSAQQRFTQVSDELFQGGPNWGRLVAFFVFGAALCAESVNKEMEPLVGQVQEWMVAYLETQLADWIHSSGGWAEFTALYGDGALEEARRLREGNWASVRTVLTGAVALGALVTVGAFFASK
To be noted: cited from earlier work.

Another experiment concerns the target T2, A1 (Homo sapiens, UniProt Q16548).
T2 sequence (Q16548 1-175): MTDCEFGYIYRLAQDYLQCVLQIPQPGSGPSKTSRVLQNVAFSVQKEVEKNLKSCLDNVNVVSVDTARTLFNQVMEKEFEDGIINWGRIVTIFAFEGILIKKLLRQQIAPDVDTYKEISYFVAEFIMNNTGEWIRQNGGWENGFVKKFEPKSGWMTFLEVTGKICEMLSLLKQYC
Particulars: cited from earlier work.

Experiment [1] relates to human liver cancer cell Hep3B. In words: MTT survival rate (Example 2), Hep3B. The experiment is classed as cell-based. Particulars: 48 hours, inhibitor 100 nM, M1 MOI=0.001. The method, then: a) Inoculation of cells and administration treatment: The cells in the exponential growth phase were selected and added into a DMEM complete culture medium (containing 10% fetal bovine serum and 1% penicillin/streptomycin (Life Technologies)) to prepare a cell suspension. The cells were inoculated into a 96-well culture plate at a density of 4×10^3/well. After 12 hours, the cells were completely adherent to the wall. […] The dose was used as follows: M1 virus that infected the cells; different dose gradient set for M1 virus. b) Reaction of MTT (3-(4,5-dimethylthiazol-2-yl)-2,5-diphenyltetrazolium bromide or methyl thiazolyl tetrazolium) with succinate dehydrogenase in the cells: 48 hours after culture, 20 μl of MIT (5 mg/ml) was added into each well, and was incubated for further 4 hours. After incubation, granular blue and purple formazan crystals formed in the living cells were observed by microscopic examination. c) Dissolution of formazan particles formed in the cells was accomplished as follows: the supernatant was carefully sucked off, and 100 μl/well of DMSO was added to dissolve the formed crystals, and was shaken in a microoscillator for 5 minutes. Then, the optical density (OD value) of each well was detected in an enzyme linked detector at a wavelength of 570 nm. The experiments were repeated for 3 times for each group. […]

The test system of experiment [2] is Hep3B transplantable tumor. In words: Transplantable tumor growth in nude mice, Hep3B (Example 4). To be noted: Hep3B s.c. in nude mice; ABT-263 i.p. 10 mg/kg/d, M1 tail vein 2×10^6 PFU/time, three injections. The experiment is classed as in vivo, BALB/c nude mice. The procedure:
(§1) This experiment was designed in a randomized, single-blind way. 5×10^6 Hep3B or LoVo cells were subcutaneously injected into dorsa of the 4-week-aged BALB/c nude mice.
(§2) The weight, length and width of the tumor were measured every two days, and the volume of the tumor was calculated according to the formula: (length×width 2)/2. After the volume of the tumor was measured, One-way ANOVA statistics was carried out, wherein *** represented p<0.001 and **represented p<0.01.

In another experiment the target is Mcl-1 (Homo sapiens, UniProt Q07820). To be noted: cited from earlier work.
Experiment [3] concerns LoVo transplantable tumor. In words: Transplantable tumor growth in nude mice, LoVo (Example 4). The experiment is classed as in vivo, BALB/c nude mice. Particulars: LoVo s.c. in nude mice; ABT-263 i.p. 10 mg/kg/d, M1 tail vein 2×10^6 PFU/time, three injections. The procedure:
as §1, §2

In another experiment the target is T3, Bfl-1 (Homo sapiens, UniProt Q16548).
T3 sequence (Q16548 1-175): T2 sequence (Q16548 1-175)
Particulars: cited from earlier work.

For the next experiment, the target named is T4, Bcl-B (Homo sapiens, UniProt Q9HD36).
T4 sequence (Q9HD36 1-204): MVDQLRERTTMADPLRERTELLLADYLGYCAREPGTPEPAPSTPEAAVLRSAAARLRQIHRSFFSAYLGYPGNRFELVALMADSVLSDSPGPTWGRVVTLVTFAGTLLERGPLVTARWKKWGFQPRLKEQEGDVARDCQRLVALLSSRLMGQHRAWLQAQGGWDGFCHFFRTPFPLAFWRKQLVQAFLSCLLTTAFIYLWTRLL
Particulars: cited from earlier work.

Bounds are passed on as bounds.

Mcl-1, sequence (Q07820 whole entry, species assumed): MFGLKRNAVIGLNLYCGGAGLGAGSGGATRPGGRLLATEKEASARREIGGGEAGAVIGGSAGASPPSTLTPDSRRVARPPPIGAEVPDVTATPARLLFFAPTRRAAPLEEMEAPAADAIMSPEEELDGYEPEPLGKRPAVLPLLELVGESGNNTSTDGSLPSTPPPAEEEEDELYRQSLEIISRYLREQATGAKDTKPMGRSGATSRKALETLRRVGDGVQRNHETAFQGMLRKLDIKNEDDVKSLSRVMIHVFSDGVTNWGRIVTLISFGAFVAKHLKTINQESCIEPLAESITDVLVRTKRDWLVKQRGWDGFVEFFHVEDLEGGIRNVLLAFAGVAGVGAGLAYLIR

Take `CC1(C)CCC(c2ccc(Cl)cc2)=C(CN2CCN(c3ccc(C(=O)NS(=O)(=O)c4ccc(N[C@H](CCN5CCOCC5)CSc5ccccc5)c(S(=O)(=O)C(F)(F)F)c4)cc3)CC2)C1` [ABT-263]: the Ki at Bcl-w is no more than 1 nM. Besides, the “binding to A1” value at A1 is reported as “binds weakly”. In addition, the “survival rate of the tumor cells” value in experiment [1] was 88.8%. The “tumor volume vs control group” value in experiment [2] and in experiment [3] was “slight shrinkage of the tumor volume” each time. Moreover, the “binding / inhibitory effect on Mcl-1” value at Mcl-1 was “binds weakly”.
As for `CN(C)CC[C@H](CSc1ccccc1)Nc1ccc(S(=O)(=O)NC(=O)c2ccc(N3CCN(Cc4ccccc4-c4ccc(Cl)cc4)CC3)cc2)cc1[N+](=O)[O-]` [ABT-737], the “inhibitory effect on Bfl-1” value on Bfl-1 is reported as “no inhibitory effect”. Moreover, the “inhibitory effect on Bcl-B” value on Bcl-B is reported as “no inhibitory effect”. Further, the “binding / inhibitory effect on Mcl-1” value on Mcl-1 was “no inhibitory effect”.
As to `CC1(C)CCC(CN2CCN(c3ccc(C(=O)NS(=O)(=O)c4ccc(NCC5CCOCC5)c([N+](=O)[O-])c4)c(Oc4cnc5[nH]ccc5c4)c3)CC2)=C(c2ccc(Cl)cc2)C1` [ABT-199], the “binding / inhibitory effect on Mcl-1” value on Mcl-1 is given as “no activity”.

A word on the Ki: it is the equilibrium dissociation constant of an inhibitor or competing ligand from its target.

The values are drawn from patent US20190183948A1, “USE OF BCL-XL INHIBITOR AND ONCOLYTIC VIRUS IN PREPARATION OF ANTITUMOR DRUG” (GUANGZHOU VIROTECH PHARMACEUTICAL CO., LTD., priority 2016, published 2019).
